# Data as given in US8618357B2, “Sweetpotato SRD1 cDNA and transgenic plants with high-numbered storage roots using the same” (Korea University Research and Business Foundation, priority 2010, dated 2013).
# System: SRD1 transcript
# Assay: Transcriptional regulation of SRD1 in response to exogenous IAA in fibrous roots of single-leaf plantlets (real-time RT-PCR)
# Format: in vivo, sweetpotato
# Conditions: for transcript level of SRD1: fibrous roots, 25° C. in the dark, FIG. 7A; for transcript level of SRD1 (time course): FIG. 7B
# Protocol: To determine the transcriptional regulation of SRD1, SRD1-specific primers [5′-[…]-3′(SEQ ID NO.: 10) and 5′-GTGCACGAAACTCCCCTT-3′(SEQ ID NO.: 11)] were designed to contain nucleotide 180 (the nucleotide showing an SNP between SRD1 and IbMADS1) and the 3 bp deletion region in SRD1 at the 3′ end of the forward primer and at the 3′ end of the reverse primer, respectively (FIG. 1).
# The roots of sweetpotato were treated with IAA according to the following method. Sweetpotato plantlets bearing a single leaf and petiole (single-leaf plantlets) were collected from sweetpotato plants and incubated in flasks containing distilled water for 3 weeks. After fibrous roots had developed from the distal end of the petiole, the single-leaf plantlets were incubated in various concentrations of IAA (0, 50, 500, 1000, 2000 μM) at 25° C. in the dark for various time periods (0-24 h). After the hormone treatment, total RNA was extracted from the fibrous roots using the RNeasy Plant Mini Kit™ (Qiagen) and used for real-time and semi-quantitative reverse transcription-PCR (RT-PCR).
# Total RNA (5 μg) was used for first-strand cDNA synthesis using the SuperScript III first-strand cDNA synthesis kit (Invitrogen). The resulting cDNA solution was then diluted with 30 μl of TE (10 mM TRIS-HCl, pH 8.0, 1 mM EDTA). The primers for real-time RT-PCR were as follows: SRD1 (5′-[…]-3′; SEQ ID NO.: 10), 5′-GTGCACGAAACTCCCCTT-3′; SEQ ID NO. 11). Real-time PCR analysis was performed using the LightCycler 480 quantification system (Roche Diagnostics) according to the manufacturer's instructions. Expression levels were normalized with β-tubulin expression amplified with 5′-[…]-3′ (SEQ ID NO.: 12) and 5′-[…]-3′ (SEQ ID NO.: 13) primers. PCR were performed starting with pre-denaturation at 95° C. for 10 min before 45 cycles of denaturation at 95° C. for 10 sec, annealing at 58° C. for 10 sec and extension at 72° C. for 20 sec. Following the amplification phase, a melting curve analysis was conducted from 65° C. to 97° C. The second derivative maximum method in the LightCycler 480 quantification software (Roche Diagnostics) was used to evaluate the data.
structure (smiles),measurement,setting,value
"O=C(O)Cc1c[nH]c2ccccc12 [IAA, Indole-3-acetic acid]",transcript level of SRD1,50 μM IAA,decreased
same,transcript level of SRD1 (time course),"500 μM IAA, 0.5 h after treatment",decreased compared with the control
same,transcript level of SRD1 (time course),"500 μM IAA, 1 h after treatment",decreased compared with the control
same,transcript level of SRD1 (time course),"500 μM IAA, 3 h after treatment",decreased compared with the control
same,transcript level of SRD1 (time course),"500 μM IAA, 6 h after treatment",increased sharply
same,transcript level of SRD1 (time course),"500 μM IAA, 12 h after treatment",decreased compared with the control
same,transcript level of SRD1 (time course),"500 μM IAA, 24 h after treatment",decreased compared with the control
same,transcript level of SRD1,500 μM IAA,decreased
same,transcript level of SRD1,1000 μM IAA,increased sharply
same,transcript level of SRD1,2000 μM IAA,decreased to almost the same level as that observed at 0 μM IAA
